The record followed here is US11603395B2, “Antitumor peptide and use thereof” (TOAGOSEI CO., LTD, priority 2019, dated 2023).

Data set [1] relates to human kidney cancer cell lines (CAKI2). Put plainly: Antitumor index from viability of CAKI2 cells vs MCF-12F normal cells (Cell Counting Kit-8, WST-8). It counts as cell-based. As to conditions: 48 hours; for Proliferation of CAKI2 cells (in words): 6.25-25 μM; for Antitumor index: CAKI2 viability A / MCF-12F viability B. As for the experimental part: (§1) Then, peptide-containing test culture mediums for each concentration were prepared so that the concentrations of the sample peptides to be evaluated were 6.25 μM, 12.5 μM, and 25 μM and supplied to wells (that is, wells after the pre-incubation) in which 90 μL of cells to be evaluated were cultured in each well. Then, the 96-hole (well) plate was returned to the CO2 incubator and incubated under conditions of 37° C. and 5% CO2 for 48 hours.
(§2) After the incubation for 48 hours was completed, the culture medium in each well was substituted with 100 μL of a fresh culture medium containing no peptide, and additionally, 10 μL of a cell proliferation measurement reagent “Cell Counting Kit-8” (product, commercially available from Dojindo Laboratories) containing a “water-soluble tetrazolium salt (WST-8)” as a coloring reagent was added to each well. Then, the 96-well plate was returned to the CO2 incubator and incubated under conditions of 37° C., and 5% CO2 for 1.5 hours to 2 hours.
(§3) After the incubation was completed, the cell culture solution to which the reagent was added was collected and the cell viability (%) was calculated according to a colorimetric method in which an absorbance at a wavelength of 450 nm (value corrected by the absorbance at a wavelength of 620 nm: A450-A620) was measured based on the reduction of the tetrazolium salt. Specifically, a measured value (measurement absorbance) of a comparative test group in which the above incubation was performed for 48 hours in a culture medium containing no sample peptide was set as a cell viability of 100%. Then, the viability A (%) of A2058 cells and the viability B (%) of MCF-12F cells were calculated. In addition, an antitumor index was calculated based on the viability of A2058 cells and MCF-12F cells using the above Formula (1), and thus the antitumor activity of the sample peptide with respect to A2058 cells was evaluated.
The antitumor activity of Sample 3 and Sample 4 in the above Test Example 1 was evaluated using different tumor cells as targets.
Specifically, currently commercially available human kidney cancer cell lines (CAKI2) were used as test tumor cells. In addition, the above MCF-12F cells were used for comparison.
a McCoy's 5A culture medium (product, commercially available from Gibco) containing 2 mM of L-glutamine, 3,000 mg/L of glucose, 100 unit/mL of penicillin, 100 μg/mL of streptomycin, and 10% fetal bovine serum (FBS).
Details of the test were as those described in Test Example 2. The antitumor index based on the viabilities of CAKI2 cells and MCF-12F cells calculated using the above Formula (1) is shown in Table 3.
On the technique in general: Formazan colour is commonly taken as a measure of viable cells.

Data set [2] has as its system human melanoma cell line (SK-MEL5). Briefly: Antitumor index from viability of SK-MEL5 cells vs MCF-12F normal cells (Cell Counting Kit-8, WST-8). It counts as cell-based. Conditions: 6.25 μM, 48 hours.
The test system of data set [3] is human melanoma (A2058) cell lines. Put plainly: Antitumor index from viability of A2058 cells vs MCF-12F normal cells (Cell Counting Kit-8, WST-8). It is filed as cell-based. As to conditions: 48 hours; for Antitumor activity / proliferation of A2058 cells (in words): 6.25-25 μM; for Antitumor index: A2058 viability A / MCF-12F viability B, n=6 wells. As for the experimental part: Specifically, for example, a test using a conventionally known cell proliferation measurement reagent using a tetrazolium salt is performed so that the antitumor index can be calculated. In a preferable aspect, first, the antitumor composition disclosed here is added to a culture solution containing tumor cells, culture is performed for a predetermined time (for example, 24 hours or longer and 72 hours or shorter), and the viability A (%) of tumor cells is calculated. In addition, the viability B (%) of normal cells cultured under the same conditions is calculated. Then, the antitumor index based on the viabilities of tumor cells and normal cells calculated in this manner can be evaluated according to, for example, the following Formula (1):
Antitumor index based on viabilities of tumor cells and normal cells=A/B (1).
The antitumor activity of the peptides of Samples 1 to 4 synthesized in the above Test Example 1 was evaluated using human-derived cultured tumor cells as targets.
Specifically, currently commercially available human melanoma (A2058) cell lines were used as test tumor cells. In addition, a normal human mammary epithelial cell culture line (MCF-12F) was used for comparison. Here, culture solutions of respective cells are as follows.
A2058 cells and MCF-12F cells were cultured and prepared so that the number of cells per well in a 96-hole (well) plate was about 5×10^3. An amount of the culture medium in this case was 100 μL per well.
Next, the 96-hole (well) plate was placed in a CO2 incubator and pre-incubated under conditions of 37° C. and 5% CO2 for about 1 day (21 hours to 24 hours).
as §1
Here, the number of test wells (n) at peptide concentrations in peptide addition test groups was set to 6. Therefore, the value of the result shown in the following table is an average value of the results obtained in 6 test wells.
as §2, §3

Data set [4] concerns A2058 cells (tumor cells). It is filed as cell-based, human. Conditions: 48 hours; for Cell viability (%): human. As for the experimental part:
Then, peptide-containing test culture mediums for each concentration were prepared so that the concentrations of the sample peptides to be evaluated were 6.25 μM, 12.5 μM, and 25 μM and supplied to wells (that is, wells after the pre-incubation) in which 90 μL of cells to be evaluated were cultured in each well. Then, the 96-hole (well) plate was returned to the CO2 incubator and incubated under conditions of 37° C. and 5% CO2 for 48 hours. After the incubation for 48 hours was completed, the culture medium in each well was substituted with 100 μL of a fresh culture medium containing no peptide, and additionally, 10 μL of a cell proliferation measurement reagent “Cell Counting Kit-8” (product, commercially available from Dojindo Laboratories) containing a “water-soluble tetrazolium salt (WST-8)” as a coloring reagent was added to each well. Then, the 96-well plate was returned to the CO2 incubator and incubated under conditions of 37° C., and 5% CO2 for 1.5 hours to 2 hours. After the incubation was completed, the cell culture solution to which the reagent was added was collected and the cell viability (%) was calculated according to a colorimetric method in which an absorbance at a wavelength of 450 nm (value corrected by the absorbance at a wavelength of 620 nm: A450-A620) was measured based on the reduction of the tetrazolium salt. Specifically, a measured value (measurement absorbance) of a comparative test group in which the above incubation was performed for 48 hours in a culture medium containing no sample peptide was set as a cell viability of 100%. Then, the viability A (%) of A2058 cells and the viability B (%) of MCF-12F cells were calculated. In addition, an antitumor index was calculated based on the viability of A2058 cells and MCF-12F cells using the above Formula (1), and thus the antitumor activity of the sample peptide with respect to A2058 cells was evaluated. Using tumor cells as targets, the antitumor activity was evaluated using a synthetic peptide having a sequence completely different from those of Samples 1 to 4. Specifically, the viability (%) of A2058 cells (tumor cells) when Sample 5 was treated was evaluated. Details of the test were as those described in Test Example 2. Here, the viability of A2058 cells cultured in a culture medium containing no Sample 5 for the same time was set as 100%, and the viability (%) of A2058 cells cultured under the treatment of Sample 5 was calculated.

Where two headings read alike, the source gives them in different places. Where no end group is shown, it is not given here.

Turning to “LVNTGLSAFLFFIASIVLAALKKRTLRKNDRKKR (LVNTGLSAFLFFIASIVLAALKKRTLRKNDRKKR-NH2) [Sample 3]”, the “Proliferation of CAKI2 cells (in words)” value in data set [1] is recorded as “significantly reduced proliferation”. The Antitumor index came to 0.77 in data set [1] (peptide 6.25 μM) and 0.1 in data set [1] (peptide 12.5 μM). Besides, the “Proliferation of SK-MEL5 cells (in words)” value in data set [2] is reported as “significantly reduced proliferation”. For the same substance, the “Antitumor activity / proliferation of A2058 cells (in words)” value in data set [3] is reported as “stronger antitumor activity”.
On to “IAAVIFGFLATAAYAVNTFLAKKRTLRKNDRKKR (IAAVIFGFLATAAYAVNTFLAKKRTLRKNDRKKR-NH2) [Sample 4]”, for which, in data set [1], the “Proliferation of CAKI2 cells (in words)” value is listed as “significantly reduced proliferation”. The Antitumor index in data set [1] (peptide 6.25 μM) is listed as 1.41; in data set [1] (peptide 12.5 μM), 0.83; in data set [1] (peptide 25 μM) it was 0.22; in data set [3] (peptide 6.25 μM), 0.84; in data set [3] (peptide 12.5 μM), 0.65; in data set [3] (peptide 25 μM) it was 0.12. Also, the “Antitumor activity / proliferation of A2058 cells (in words)” value in data set [3] is recorded as “stronger antitumor activity”.
For the substance “YFFEFVSCSAFVVTGVLLIMFKKRTLRKNDRKKR [Sample 2]”, the Antitumor index in data set [3] (peptide 6.25 μM) came to 0.79; in data set [3] (peptide 12.5 μM) it was 0.61; in data set [3] (peptide 25 μM) it was 0.52.
Consider “MGSNLSPQLCLMPFILGLLSGGVTTKKRTLRKNDRKKR-NH2 [Sample 5]”, for which, in data set [4] (A2058 cells, 6.25-25 μM), the “Antitumor activity (in words)” value is recorded as “no antitumor activity”. The “Cell viability (%)” value is recorded as 110.7% in data set [4] (6.25 μM), 109.9% in data set [4] (12.5 μM) and 113.6% in data set [4] (25 μM).
On to “VAQVILALIAFICIETIMACSKKRTLRKNDRKKR (VAQVILALIAFICIETIMACSKKRTLRKNDRKKR-NH2; cysteine pairing not given here) [Sample 1]”, for which the Antitumor index is given as 1.17 in data set [3] (peptide 6.25 μM), 0.71 in data set [3] (peptide 12.5 μM) and 0.74 in data set [3] (peptide 25 μM).
